According to patent publication US5239058A, “Proteins having anticoagulant properties” (Merck & Co., Inc., priority 1992, dated 1993):

Legend:
human Factor Xa = target: T1, human Factor Xa (Homo sapiens, UniProt P00742); assay: Factor Xa chromogenic enzyme assay (Spectrozyme Xa); type: biochemical; settings: for Ki: inhibitor pre-incubated with human Factor Xa, tight binding equation, read-out: Ki for inhibition of Factor Xa
T1 construct: purchased Enzyme Research Laboratories
Procedure: (§1) Assays were carried out at room temperature in 96-well microtiter plates. The color developed from the hydrolysis of peptide-nitroanilide substrates was monitored continuously at 405 nM on a Vmax machine (Molecular Devices). The concentration of Factor Xa was determined by active site titration. The concentrations of working solutions of the other proteases were determined spectrophotometrically using published extinction coefficients. The concentration of purified inhibitor was determined by quantitative amino acid analysis. […] In the case of human Factor Xa, the buffers also included 0.1% BSA; for S. aureus V8 protease the buffer was 50 mM NH4 HCo3. The substrates used were: Spectrozyme Xa (Factor Xa), S-2238 (thrombin), S-2356 (chymotrypsin), S-2366 (Factor XIa) Boc-AlaAla-Pro-Ala-pNA (elastase), Spectrozyme Pkal (kallikrein), Spectrozyme PL (plasmin), Spectrozyme UK (urokinase) Z-Phe-Leu-Glu-pNA (S. aureus V8 protease) and Spectrozyme tPA for tPA. Factor VIIa was assayed by measuring the release of the ^3 H-activation peptide from human Factor X. For kinetic analyses, assays were carried for up to 10 min. followed by estimation of the initial rate where less than 5% of the added substrate was utilized.
(§2) Because the TAP-1 was pre-incubated with the human Factor Xa to establish equilibrium in the absence of substrate, a value for the intrinsic Ki irrespective of the mechanism was calculated (solid line) using the equation for tight binding inhibition described in the article by Morrison, J. F. in Biochem. Biophys. Acta 185,269 (1969). The effect on TAP-1 on various proteases also was tested.

Factor VIIa = Factor VIIa (Homo sapiens, UniProt P08709); assay: Factor VIIa assay (release of 3H-activation peptide from human Factor X); type: biochemical; settings: 300-fold molar excess of TAP-1 over protease
Procedure: as §1, with “Factor VIIa was assayed by measuring the release of the ^3 H-activation peptide from human Factor X. For kinetic analyses, assays were carried for up to 10 min. followed by estimation of the initial rate where less than 5% of the added substrate was utilized.” left out
as §2, with “Acta 185,269 (1969). The effect on TAP-1 on various proteases also was tested.” left out

thrombin = target: T2, thrombin (Bos taurus, UniProt P00735); assay: thrombin chromogenic enzyme assay (S-2238); type: biochemical, bovine; settings: 300-fold molar excess of TAP-1 over protease
T2 construct: responsible for the Factor Xa conversion of prothrombin to thrombin in vivo; purchased Calbiochem
From the text: (§3) Ornithodoros moubata ticks were obtained from South Africa through Antibody Associates, Inc. (Bedford, Tex.). Colorimetric substrates were purchased from Helena Labs, American Diagnostica, and Chemical Dynamics. Human Factor Xa was from Enzyme Research Laboratories. Human plasmin, urokinase, and bovine thrombin were from Calbiochem; bovine trypsin, chymotrypsin, and pancreatic elastase were from Worthington Enzymes, Inc. Plasma kallikrein, carboxypeptidase Y, S. aureus V8 protease and protease inhibitors were from Sigma. Two chain tPA was from American Diagnostica.
(§4) Assays were carried out at room temperature in 96-well microtiter plates. […] The concentration of Factor Xa was determined by active site titration. The concentrations of working solutions of the other proteases were determined spectrophotometrically using published extinction coefficients. The concentration of purified inhibitor was determined by quantitative amino acid analysis. […]
as §2, with “Acta 185,269 (1969). The effect on TAP-1 on various proteases also was tested.” left out

chymotrypsin = target: T3, chymotrypsin (Bos taurus, UniProt P00766); assay: chymotrypsin chromogenic enzyme assay (S-2356); type: biochemical, bovine; settings: 300-fold molar excess of TAP-1 over protease
T3 construct: purchased Worthington Enzymes, Inc
From the text: as §3, §4
as §2, with “Acta 185,269 (1969). The effect on TAP-1 on various proteases also was tested.” left out

pancreatic elastase = target: T4, pancreatic elastase (Sus scrofa, UniProt P00772); assay: elastase chromogenic enzyme assay (Boc-AlaAla-Pro-Ala-pNA); type: biochemical; settings: 300-fold molar excess of TAP-1 over protease
T4 construct: purchased Worthington Enzymes, Inc
From the text: as §3, §4
as §2, with “Acta 185,269 (1969). The effect on TAP-1 on various proteases also was tested.” left out

trypsin = target: T5, trypsin (Bos taurus, UniProt P00760); assay: trypsin chromogenic enzyme assay; type: biochemical, bovine; settings: 300-fold molar excess of TAP-1 over protease
T5 construct: purchased Worthington Enzymes, Inc
T5 sequence (P00760 24-246): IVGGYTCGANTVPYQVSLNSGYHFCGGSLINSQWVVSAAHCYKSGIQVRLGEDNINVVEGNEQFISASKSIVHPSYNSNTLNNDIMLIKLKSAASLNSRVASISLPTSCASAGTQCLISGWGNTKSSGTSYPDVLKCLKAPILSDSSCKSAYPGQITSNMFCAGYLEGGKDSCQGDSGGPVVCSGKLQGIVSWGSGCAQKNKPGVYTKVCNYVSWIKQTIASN
From the text: as §3, §4
as §2, with “Acta 185,269 (1969). The effect on TAP-1 on various proteases also was tested.” left out

Plasma kallikrein = target: T6, Plasma kallikrein (Homo sapiens, UniProt P03952); assay: kallikrein chromogenic enzyme assay (Spectrozyme Pkal); type: biochemical; settings: 300-fold molar excess of TAP-1 over protease
T6 construct: purchased Sigma
From the text: as §3, §4
as §2, with “Acta 185,269 (1969). The effect on TAP-1 on various proteases also was tested.” left out

urokinase = target: T7, urokinase (Homo sapiens, UniProt P00749); assay: urokinase chromogenic enzyme assay (Spectrozyme UK); type: biochemical; settings: 300-fold molar excess of TAP-1 over protease
T7 construct: purchased Calbiochem
From the text: as §3, §4
as §2, with “Acta 185,269 (1969). The effect on TAP-1 on various proteases also was tested.” left out

plasmin = target: T8, plasmin (Homo sapiens, UniProt P00747); assay: plasmin chromogenic enzyme assay (Spectrozyme PL); type: biochemical; settings: 300-fold molar excess of TAP-1 over protease
T8 construct: Human plasmin, urokinase, and bovine thrombin were from Calbiochem; purchased Calbiochem
From the text: as §3, §4
as §2, with “Acta 185,269 (1969). The effect on TAP-1 on various proteases also was tested.” left out

S. aureus V8 protease = S. aureus V8 protease (Staphylococcus aureus, UniProt P0C1U8); settings: 300-fold molar excess of TAP-1 over protease
From the text: as §3, §4
as §2, with “Acta 185,269 (1969). The effect on TAP-1 on various proteases also was tested.” left out

Normal Human Plasma [1] = assay: Prothrombin Time, plasma based clotting assay; type: biochemical
Normal Human Plasma [2] = assay: Activated Partial Thromboplastin Time, plasma based clotting assay; type: biochemical
Normal Human Plasma [3] = assay: Modified Stypven Time, plasma based clotting assay; type: biochemical
[4] = test system: thromboplastin-induced clot formation; assay: in vivo model of thromboplastin-induced clot formation (jugular vein); parameters: species or system rabbit; settings: rabbits, untreated 29.2±3.4%
Procedure: An in vivo model of thromboplastin-induced clot formation similar to Van Ryn-McKenna, et al., (1989) Thrombosis and Haemostasis 61:7-9 was used to determine the efficacy of the Factor Xa inhibitor recombinant TAP-1. Rabbits were pretreated with an infusion of recombinant TAP-1 for 60 minutes, at which time a segment of the jugular vein was isolated and occluded. Thromboplastin and whole blood withdrawn from the carotid artery were injected into the segment in order to induce clot formation. The jugular vein remained occluded for 30 minutes before the clot was removed and quantitated.

[5] = test system: activated partial thromboplastin time; assay: activated partial thromboplastin time in infused rabbits; type: in vivo, rabbit; settings: i.v. infusions of 7, 37 and 64 μg/kg/min
prothrombin time = prothrombin time in infused rabbits; type: in vivo, rabbit; settings: i.v. infusions of 7, 37 and 64 μg/kg/min
[6] = 28.9 pMol TAP-1, Normal Human Plasma
[7] = 57.8 pMol TAP-1, Normal Human Plasma
[8] = 115 pMol TAP-1, Normal Human Plasma

T1 sequence (P00742 235-488 limits assumed): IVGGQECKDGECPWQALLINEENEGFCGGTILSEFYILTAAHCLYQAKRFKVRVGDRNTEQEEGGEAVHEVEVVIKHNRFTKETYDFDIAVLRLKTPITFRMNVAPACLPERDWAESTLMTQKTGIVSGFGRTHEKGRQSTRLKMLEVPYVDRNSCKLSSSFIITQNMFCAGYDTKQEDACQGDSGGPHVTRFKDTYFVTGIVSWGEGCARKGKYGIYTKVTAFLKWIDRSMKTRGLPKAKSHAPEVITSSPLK
T1 sequence (P00742 41-179 partner limits assumed): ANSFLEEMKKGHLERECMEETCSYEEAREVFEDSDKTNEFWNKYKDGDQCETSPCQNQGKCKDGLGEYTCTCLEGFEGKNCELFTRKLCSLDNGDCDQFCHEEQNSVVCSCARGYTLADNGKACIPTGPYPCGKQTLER
Factor VIIa, sequence (P08709 213-466 limits assumed): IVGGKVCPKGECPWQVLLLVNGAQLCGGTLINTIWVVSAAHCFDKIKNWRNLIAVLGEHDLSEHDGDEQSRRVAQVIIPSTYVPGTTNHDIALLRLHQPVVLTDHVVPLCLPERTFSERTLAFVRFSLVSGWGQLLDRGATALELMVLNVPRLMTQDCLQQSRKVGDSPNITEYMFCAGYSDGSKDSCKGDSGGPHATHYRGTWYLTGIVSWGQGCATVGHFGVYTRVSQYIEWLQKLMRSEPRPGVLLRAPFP
Factor VIIa, sequence (P08709 61-212 partner limits assumed): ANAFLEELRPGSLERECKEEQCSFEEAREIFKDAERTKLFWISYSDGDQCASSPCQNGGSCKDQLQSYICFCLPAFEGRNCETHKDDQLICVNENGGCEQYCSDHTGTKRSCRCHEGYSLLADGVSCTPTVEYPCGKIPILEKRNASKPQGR
Factor VIIa, sequence (P13726 33-295 partner): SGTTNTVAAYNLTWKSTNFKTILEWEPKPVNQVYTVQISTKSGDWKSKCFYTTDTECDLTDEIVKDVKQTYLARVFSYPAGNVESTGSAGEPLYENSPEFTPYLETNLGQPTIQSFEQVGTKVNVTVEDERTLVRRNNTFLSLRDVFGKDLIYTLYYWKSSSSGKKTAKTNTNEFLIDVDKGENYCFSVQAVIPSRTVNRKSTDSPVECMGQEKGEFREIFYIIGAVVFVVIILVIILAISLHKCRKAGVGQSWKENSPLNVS
T4 sequence (P00772 27-266): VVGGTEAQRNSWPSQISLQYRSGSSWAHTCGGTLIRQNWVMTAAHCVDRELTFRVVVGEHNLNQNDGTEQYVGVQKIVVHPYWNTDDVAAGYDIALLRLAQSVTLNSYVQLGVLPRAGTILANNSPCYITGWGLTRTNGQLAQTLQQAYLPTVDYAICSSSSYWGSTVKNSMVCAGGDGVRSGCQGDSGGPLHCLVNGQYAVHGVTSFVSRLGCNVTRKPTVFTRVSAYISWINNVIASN
T8 sequence (P00747 581-810 limits assumed): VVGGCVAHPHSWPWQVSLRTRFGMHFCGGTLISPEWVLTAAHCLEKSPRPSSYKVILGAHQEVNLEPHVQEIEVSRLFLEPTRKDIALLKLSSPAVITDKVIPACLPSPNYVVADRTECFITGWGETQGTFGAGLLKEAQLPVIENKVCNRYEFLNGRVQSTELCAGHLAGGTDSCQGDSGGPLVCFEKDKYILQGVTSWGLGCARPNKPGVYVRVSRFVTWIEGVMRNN
T8 sequence (P00747 97-580 partner limits assumed): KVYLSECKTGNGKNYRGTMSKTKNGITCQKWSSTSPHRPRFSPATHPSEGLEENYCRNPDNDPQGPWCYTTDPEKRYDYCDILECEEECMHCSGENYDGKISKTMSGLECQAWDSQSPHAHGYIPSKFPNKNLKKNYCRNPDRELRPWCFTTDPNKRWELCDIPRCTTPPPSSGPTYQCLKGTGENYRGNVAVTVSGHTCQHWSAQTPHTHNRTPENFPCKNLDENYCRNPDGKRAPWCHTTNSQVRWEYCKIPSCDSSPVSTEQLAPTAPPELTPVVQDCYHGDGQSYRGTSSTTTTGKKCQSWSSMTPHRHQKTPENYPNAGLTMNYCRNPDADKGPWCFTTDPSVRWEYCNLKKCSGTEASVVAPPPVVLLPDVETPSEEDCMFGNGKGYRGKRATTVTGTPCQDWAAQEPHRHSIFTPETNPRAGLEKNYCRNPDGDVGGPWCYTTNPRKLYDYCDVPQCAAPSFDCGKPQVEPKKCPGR
S. aureus V8 protease, sequence (P0C1U8 69-336): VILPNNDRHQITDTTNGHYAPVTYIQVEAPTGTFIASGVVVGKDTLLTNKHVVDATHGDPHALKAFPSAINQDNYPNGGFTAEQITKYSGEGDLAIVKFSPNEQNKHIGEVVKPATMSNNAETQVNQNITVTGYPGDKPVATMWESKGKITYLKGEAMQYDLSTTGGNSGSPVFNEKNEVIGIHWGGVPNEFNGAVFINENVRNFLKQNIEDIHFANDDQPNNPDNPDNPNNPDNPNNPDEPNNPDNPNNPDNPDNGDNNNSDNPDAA
T6 sequence (P03952 391-638 limits assumed, species assumed): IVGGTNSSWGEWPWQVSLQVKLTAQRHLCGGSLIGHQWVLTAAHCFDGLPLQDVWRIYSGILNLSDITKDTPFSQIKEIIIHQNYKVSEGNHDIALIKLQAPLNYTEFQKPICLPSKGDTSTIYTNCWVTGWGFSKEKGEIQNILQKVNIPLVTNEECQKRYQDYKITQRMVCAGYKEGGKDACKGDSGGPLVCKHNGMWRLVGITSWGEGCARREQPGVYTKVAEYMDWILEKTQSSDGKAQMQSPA
T6 sequence (P03952 20-390 partner limits assumed, species assumed): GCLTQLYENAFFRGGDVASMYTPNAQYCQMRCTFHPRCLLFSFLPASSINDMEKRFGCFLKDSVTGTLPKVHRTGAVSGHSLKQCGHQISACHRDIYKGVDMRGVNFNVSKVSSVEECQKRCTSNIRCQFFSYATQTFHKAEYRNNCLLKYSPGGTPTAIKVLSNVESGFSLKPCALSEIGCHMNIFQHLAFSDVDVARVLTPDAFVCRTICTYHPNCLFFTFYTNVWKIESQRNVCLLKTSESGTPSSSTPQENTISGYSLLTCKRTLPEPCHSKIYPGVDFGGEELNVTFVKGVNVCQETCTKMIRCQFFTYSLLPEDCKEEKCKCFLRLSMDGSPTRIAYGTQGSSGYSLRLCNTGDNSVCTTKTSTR

TAP-1: 60 amino acid Factor Xa inhibitor protein purified from Ornithodoros moubata tick extracts (YNRLCIKPRDWIDECDSNEGGERAYFRNGKGGCDSFWICPEDHTGADYYSSYRDCFNACI; UniProt P17726 1-60, looked up)
effect of Ca++ on the ability to inhibit Factor Xa (human Factor Xa; inclusion of 1-5 mM Ca++): no effect
Ki (human Factor Xa): 0.58 nM
inhibition of Factor VIIa (Factor VIIa): no inhibition
inhibition of thrombin (thrombin): no inhibition
inhibition of chymotrypsin (chymotrypsin): no inhibition
inhibition of elastase (pancreatic elastase): no inhibition
inhibition of trypsin (trypsin): no inhibition
inhibition of kallikrein (Plasma kallikrein): no inhibition
inhibition of urokinase (urokinase): no inhibition
inhibition of plasmin (plasmin): no inhibition
inhibition of S. aureus V8 protease (S. aureus V8 protease): no inhibition
Clotting Time, Prothrombin Time (Normal Human Plasma [1]; 1.15 pMol TAP-1, Normal Human Plasma): 15.1 s
Clotting Time, Prothrombin Time (Normal Human Plasma [1]; [6]): 28.9 s
Clotting Time, Prothrombin Time (Normal Human Plasma [1]; [7]): 31.2 s
Clotting Time, Prothrombin Time (Normal Human Plasma [1]; [8]): 48.7 s
Clotting Time, Activated Partial Thromboplastin Time (Normal Human Plasma [2]; [6]): 45.2 s
Clotting Time, Activated Partial Thromboplastin Time (Normal Human Plasma [2]; [7]): 57.7 s
Clotting Time, Activated Partial Thromboplastin Time (Normal Human Plasma [2]; [8]): 92.2 s
Clotting Time, Modified Stypven Time (Normal Human Plasma [3]; [6]): 17.7 s
Clotting Time, Modified Stypven Time (Normal Human Plasma [3]; [7]): 31.2 s
Clotting Time, Modified Stypven Time (Normal Human Plasma [3]; [8]): 65.1 s

recombinant TAP-1: TAP-1 expressed from a synthetic gene in S. cerevisiae and purified from broth (YNRLCIKPRDWIDECDSNEGGERAYFRNGKGGCDSFWICPEDHTGADYYSSYRDCFNACI; UniProt P17726 1-60, looked up)
Ki (human Factor Xa): 0.2 nM
Clot formation (normalized clot value) ([4]; i.v. infusion 7 μg/kg/min for 60 minutes): 27.0±7.5%
Clot formation (normalized clot value) ([4]; i.v. infusion 37 μg/kg/min for 60 minutes): 7.9±2.0%
Clot formation (normalized clot value) ([4]; i.v. infusion 64 μg/kg/min for 60 minutes): 1.9±1.0%
effect on activated partial thromboplastin time [5]: did not significantly increase
effect on prothrombin time (prothrombin time): did not significantly increase
